What was measured:
PC-9 cells = test: Seahorse Glycolysis Stress assay (ECAR and OCR); format: cell-based, human
Text: In light of the role of PKM2 in promoting glycolysis, we hypothesized that the antitumor activity of compound 1 might, in part, be attributable to its ability to reverse the glycolytic phenotype (i.e., Warburg effect) of cancer cells. Accordingly, we examined the effects of compound 1 on the extracellular acidification rate (ECAR) and cellular oxygen consumption rate (OCR) in PC-9 cells, which represent key bioenergetic parameters of glycolysis (lactate production) and mitochondrial respiration (oxidative phosphorylation), respectively, using a commercial kit (Agilent Seahorse XF Glycolysis Stress Test Kit). In the ECAR measurement, glucose, oligomycin (an ATP synthetase inhibitor), and 2-deoxyglucose (2-DG; a hexokinase/glycolysis inhibitor) were added in tandem to glucose-starved cells at different time intervals to activate or interfere with glycolysis, thereby allowing the calculation of the glycolytic flux and glycolytic capacity. […] Meanwhile, the OCR response, a parameter for oxidative phosphorylation, was concurrently monitored. […] It is noteworthy that when glucose was added to the basal medium, there was a decrease in the OCR in the control group. This phenomenon was previously referred to as the “Crabtree effect”, i.e., when glucose is added to activate glycolysis, it might be more favorable for cells to generate ATP through substrate-level phosphorylation, thereby reducing the need of oxidative phosphorylation. However, this glucose-induced drop in OCR became less apparent in the presence of compound 1, which might be associated with the ability of compound 1 to block glycolysis.
Glycolysis Stress assay. Extracellular acidification rate (ECAR) and oxygen consumption rate (OCR) were measured using a Seahorse Bioscience XF96 extracellular flux analyzer (Seahorse Bioscience) according to the manufacturer's protocol. PC-9 ells (5×10^4) were seeded in 96 Seahorse XF Cell Culture Microplate with normal growth medium 24 hours before treatment with compounds. The cells were treated with DMSO or compound 1 for 4 hours at 37° C. under 5% CO2 atmosphere. […]

H1650 lung cancer cells = test: MTT cell viability assay, H1650; format: cell-based; settings: Homo sapiens, NCI-H1650, H1650 (mutant EGFR), 24 hours
Text: (§1) Cell lines, cell culture, biochemical reagents, and antibodies. MiaPaCa-2, AsPC-1, and Panc-1 human pancreatic cancer cells, MCF-7 and MDA-MB-231 breast cancer cells, SCC4 and SCC2059 oral cancer cells, PC-3 and LNCaP prostate cancer cells, H157, H460, H1975, PC-9 and H1650 lung cancer cells were obtained from the American Type Culture Collection (ATCC, Manassas, Va.). All these cells were maintained in recommended growth medium (RPMI 1640 or DMEM) supplemented with 10% fetal bovine serum (FBS) (Invitrogen, Carlsbad, Calif., USA) and antibiotics at 37° C. in a humidified incubator containing 5% CO2. For SILAC experiments, PC-9 cells were grown in SILAC DMEM medium (Thermo Fisher) supplemented with 10% dialyzed FBS and 100 μg/mL each of unlabeled L-arginine and L-lysine (light medium) or ^13C/^15N stable isotope-labeled L-arginine and L-lysine (heavy medium). […]
(§2) Cell viability assays. Drug effects on cell viability was assessed by 3-(4,5-dimethylthiazol-2-yl)-2,5-diphenyltetrazolium bromide ([…]) assays. […] The medium was then removed from each well and replaced with DMSO to dissolve the reduced MTT dye for subsequent colorimetric measurement of absorbance at 560 nm. Cell viabilities are expressed as percentages of viable cells relative to the corresponding vehicle-treated control group.

[1] = test system: ROS production in PC-9 cells; test: ROS assay; format: cell-based, human; settings: 0.25 μM and 0.5 μM, 6 hours
Procedure: ROS assay. ROS detection was performed by using a fluorescent assay kit from BioVision (Milpitas, Calif., USA) according to the manufacturer's instructions. Briefly, PC-9 cells were seeded into 96-well plate at a cell density of 2×10^4 cells per well. After 24 hours, cells were treated with indicated concentration of compound 1 or DMSO for 6 hours. After treatment, cells were washed in ROS assay buffer and then incubated with 1×ROS label diluted in ROS assay buffer for 45 min at 37° C. in the dark. The ROS label was removed, and the fluorescence at Ex/Em 495/529 nm in end point mode was measured immediately after 100 μl of ROS assay buffer was added to each well.

[2] = test system: MDA-MB-231 breast cancer cells; test: MTT cell viability assay, MDA-MB-231; format: cell-based; settings: Homo sapiens; MDA-MB-231, MTT, 24 hours
Text: as §1, §2

[3] = test system: MCF-7 breast cancer cells; test: MTT cell viability assay, MCF-7; format: cell-based; settings: Homo sapiens, MCF7; MCF-7, MTT, 24 hours
Text: as §1, §2

[4] = test system: pyruvate kinase activity in PC-9 cells; test: Pyruvate kinase activity assay in PC-9 cells; format: cell-based, human; settings: 0.25 μM, 6 hours, relative to vehicle control
Procedure: Pyruvate kinase activity assays. PC-9 cells were seeded into 6 cm dishes at a concentration of 5×10^5 cells/mL. After 24 hours, cells were treated with 0.25 μM compound 1 or DMSO for 6 hours. The pyruvate kinase activity of compound 1-treated PC-9 and vehicle control cells was measured by using a commercial colorimetric assay kit from BioVision (Milpitas, Calif., USA) according to the manufacturer's protocol. In addition, to verify the specificity of compound 1 toward PKM2 versus PKM1, the inhibition of the kinase activity of recombinant PKM1 (SRP0415, Sigma-Aldrich) and recombinant PKM2 (SAE0021, Sigma-Aldrich) by compound 1 was conducted using the aforementioned assay kit.

IC50 (H1650 lung cancer cells): 200 nM
IC50 [2]: 100 nM
IC50 [3]: 1000 nM
SMILES: C#CC(=O)Nc1ccc(-n2nc(CCC(=O)NC)cc2-c2ccc(-c3ccc(C(F)(F)F)cc3)cc2)cc1 [compound 1, N-(4-(3-(3-(Methylamino)-3-oxopropyl)-5-(4′-(trifluoromethyl)-[1,1′-biphenyl]-4-yl)-1H-pyrazol-1-yl)phenyl)propiolamide]
glycolytic acidification (ECAR) (PC-9 cells; 0.25-1 μM, 4 hours): suppressed the glycolytic acidification in a concentration-dependent manner
non-glycolytic acidification (ECAR) (PC-9 cells; 0.25-1 μM, 4 hours): no appreciable effect
oxygen consumption rate (OCR), basal state (PC-9 cells; prior to glucose supplementation, relative to DMSO): increase oxygen consumption in the basal state
ROS level [1]: reduced the ROS level
pyruvate kinase activity in cells [4]: significantly reduced pyruvate kinase activity
